# In ChEMBL document CHEMBL3885861, “Open TG-GATES”:
# Species on record: Rattus norvegicus
# Assay: Open TG-GATES - Regimen: Daily Repeat
# Format: toxicity, organism-based, Sprague-Dawley
# Parameters: regimen Daily Repeat, gender Male, age 6 weeks
# Details: in vivo, po, route gavage; for APTT / Bas / Eos / Fbg / Hb / Ht / Lym / MCH / MCHC / MCV / Mono / Neu / PT / Plat / RBC / Ret / WBC: tissue Blood; for KIDNEY_L / KIDNEY_R / KIDNEY_TOTAL: tissue Kidney; for LIVER: tissue Liver; for A/G / ALP / ALT / AST / BUN / CRE / Ca / Cl / DBIL / GLC / IP / K / LDH / Na / PL / RALB / TBIL / TC / TG / TP / gamma-GTP: tissue Plasma
# [1] = 0 mg/kg, 72 h, dose level Control, time 3 day
# [2] = 0 mg/kg, […], dose level Control, time 7 day
# [3] = 0 mg/kg, […], dose level Control, time 14 day
# [4] = 0 mg/kg, […], dose level Control, time 28 day
# [5] = 3 mg/kg, 72 h, dose level Low, time 3 day
# [6] = 3 mg/kg, […], dose level Low, time 7 day
# [7] = 3 mg/kg, […], dose level Low, time 14 day
# [8] = 3 mg/kg, […], dose level Low, time 28 day
smiles,measurement,setting,value
C[C@H]1C(=O)O[C@@H]2CCN3CC=C(COC(=O)[C@](C)(O)[C@]1(C)O)[C@H]23 [MONOCROTALINE],TERMINAL_BW,[1],230.9 g
same,APTT,[1],21.2 s
same,Bas,[1],0%
same,Eos,[1],0.6%
same,Fbg,[1],311.8 mg/dL
same,Hb,[1],13.5 g/dL
same,Ht,[1],39.5%
same,Lym,[1],83.8%
same,MCH,[1],21.5 pg
same,MCHC,[1],34.3%
same,MCV,[1],62.6 fL
same,Mono,[1],2%
same,Neu,[1],12.4%
same,PT,[1],15.8 s
same,Plat,[1],119.6 x10_4/uL
same,RBC,[1],631.2 x10_4/ul
same,Ret,[1],6.9%
same,WBC,[1],91.2 x10_2/uL
same,KIDNEY_L,[1],1 g
same,KIDNEY_R,[1],1 g
same,KIDNEY_TOTAL,[1],2.1 g
same,LIVER,[1],11 g
same,A/G,[1],1.2
same,ALP,[1],1771.6 IU/L
same,ALT,[1],40.2 IU/L
same,AST,[1],70 IU/L
same,BUN,[1],18.2 mg/dL
same,CRE,[1],0.2 mg/dL
same,Ca,[1],10.6 mg/dL
same,Cl,[1],105.6 meq/L
same,DBIL,[1],0.004 mg/dL
same,GLC,[1],191.4 mg/dL
same,IP,[1],6.9 mg/dL
same,K,[1],4.6 meq/L
same,LDH,[1],222.4 IU/L
same,Na,[1],142.2 meq/L
same,PL,[1],164 mg/dL
same,RALB,[1],3.1 g/dL
same,TBIL,[1],0.008 mg/dL
same,TC,[1],83.8 mg/dL
same,TG,[1],119 mg/dL
same,TP,[1],5.6 g/dL
same,gamma-GTP,[1],1.2 IU/L
same,TERMINAL_BW,[2],267 g
same,TERMINAL_BW,[3],315.5 g
same,TERMINAL_BW,[4],368.8 g
same,APTT,[2],21 s
same,Bas,[2],0%
same,Eos,[2],0.8%
same,Fbg,[2],309.8 mg/dL
same,Hb,[2],13.3 g/dL
same,Ht,[2],38.4%
same,Lym,[2],80.6%
same,MCH,[2],20.8 pg
same,MCHC,[2],34.7%
same,MCV,[2],60.2 fL
same,Mono,[2],2.6%
same,Neu,[2],15.2%
same,PT,[2],16.6 s
same,Plat,[2],111.7 x10_4/uL
same,RBC,[2],638.2 x10_4/ul
same,Ret,[2],6.1%
same,WBC,[2],108.8 x10_2/uL
same,APTT,[3],20.5 s
same,Bas,[3],0%
same,Eos,[3],1%
same,Fbg,[3],323.2 mg/dL
same,Hb,[3],14.1 g/dL
same,Ht,[3],39.6%
same,Lym,[3],78.4%
same,MCH,[3],20.7 pg
same,MCHC,[3],35.6%
same,MCV,[3],58.1 fL
same,Mono,[3],2.8%
same,Neu,[3],16.8%
same,PT,[3],16.7 s
same,Plat,[3],104.7 x10_4/uL
same,RBC,[3],681.6 x10_4/ul
same,Ret,[3],4.5%
same,WBC,[3],124 x10_2/uL
same,APTT,[4],22.4 s
same,Bas,[4],0%
same,Eos,[4],1.2%
same,Fbg,[4],314.2 mg/dL
same,Hb,[4],14.7 g/dL
same,Ht,[4],40.6%
same,Lym,[4],82.2%
same,MCH,[4],19.7 pg
same,MCHC,[4],36.1%
same,MCV,[4],54.6 fL
same,Mono,[4],2%
same,Neu,[4],13.6%
same,PT,[4],16 s
same,Plat,[4],102 x10_4/uL
same,RBC,[4],744.4 x10_4/ul
same,Ret,[4],2.6%
same,WBC,[4],110.5 x10_2/uL
same,KIDNEY_L,[2],1.1 g
same,KIDNEY_R,[2],1.1 g
same,KIDNEY_TOTAL,[2],2.2 g
same,KIDNEY_L,[3],1.3 g
same,KIDNEY_R,[3],1.3 g
same,KIDNEY_TOTAL,[3],2.5 g
same,KIDNEY_L,[4],1.3 g
same,KIDNEY_R,[4],1.4 g
same,KIDNEY_TOTAL,[4],2.7 g
same,LIVER,[2],12.7 g
same,LIVER,[3],13.3 g
same,LIVER,[4],14.7 g
same,A/G,[2],1.2
same,ALP,[2],1469.6 IU/L
same,ALT,[2],37.8 IU/L
same,AST,[2],65 IU/L
same,BUN,[2],18 mg/dL
same,CRE,[2],0.2 mg/dL
same,Ca,[2],10.7 mg/dL
same,Cl,[2],105.4 meq/L
same,DBIL,[2],0 mg/dL
same,GLC,[2],187 mg/dL
same,IP,[2],7 mg/dL
same,K,[2],4.3 meq/L
same,LDH,[2],182.2 IU/L
same,Na,[2],142.4 meq/L
same,PL,[2],156.2 mg/dL
same,RALB,[2],3.1 g/dL
same,TBIL,[2],0.002 mg/dL
same,TC,[2],79.6 mg/dL
same,TG,[2],111 mg/dL
same,TP,[2],5.6 g/dL
same,gamma-GTP,[2],1 IU/L
same,A/G,[3],1.2
same,ALP,[3],1565.6 IU/L
same,ALT,[3],36 IU/L
same,AST,[3],68.6 IU/L
same,BUN,[3],19.4 mg/dL
same,CRE,[3],0.2 mg/dL
same,Ca,[3],10.8 mg/dL
same,Cl,[3],105.6 meq/L
same,DBIL,[3],0.002 mg/dL
same,GLC,[3],194 mg/dL
same,IP,[3],6.6 mg/dL
same,K,[3],4.3 meq/L
same,LDH,[3],217 IU/L
same,Na,[3],142.4 meq/L
same,PL,[3],144 mg/dL
same,RALB,[3],3.2 g/dL
same,TBIL,[3],0 mg/dL
same,TC,[3],66.6 mg/dL
same,TG,[3],148 mg/dL
same,TP,[3],5.9 g/dL
same,gamma-GTP,[3],1.6 IU/L
same,A/G,[4],1.1
same,ALP,[4],1093.2 IU/L
same,ALT,[4],53 IU/L
same,AST,[4],79.6 IU/L
same,BUN,[4],18.8 mg/dL
same,CRE,[4],0.2 mg/dL
same,Ca,[4],10.6 mg/dL
same,Cl,[4],106.8 meq/L
same,DBIL,[4],0 mg/dL
same,GLC,[4],190.2 mg/dL
same,IP,[4],6.3 mg/dL
same,K,[4],4.1 meq/L
same,LDH,[4],176.4 IU/L
same,Na,[4],141.8 meq/L
same,PL,[4],152.6 mg/dL
same,RALB,[4],3.2 g/dL
same,TBIL,[4],0.01 mg/dL
same,TC,[4],74 mg/dL
same,TG,[4],160.4 mg/dL
same,TP,[4],6 g/dL
same,gamma-GTP,[4],1 IU/L
same,TERMINAL_BW,[5],234.1 g
same,APTT,[5],21.2 s
same,Bas,[5],0%
same,Eos,[5],0.8%
same,Fbg,[5],311.8 mg/dL
same,Hb,[5],13.5 g/dL
same,Ht,[5],39.5%
same,Lym,[5],80.2%
same,MCH,[5],20.8 pg
same,MCHC,[5],34%
same,MCV,[5],61.2 fL
same,Mono,[5],2%
same,Neu,[5],16.2%
same,PT,[5],15.9 s
same,Plat,[5],130.1 x10_4/uL
same,RBC,[5],646.2 x10_4/ul
same,Ret,[5],7.1%
same,WBC,[5],122.6 x10_2/uL
same,KIDNEY_L,[5],1 g
same,KIDNEY_R,[5],1 g
same,KIDNEY_TOTAL,[5],2 g
same,LIVER,[5],10.8 g
same,A/G,[5],1.2
same,ALP,[5],1957.6 IU/L
same,ALT,[5],43.6 IU/L
same,AST,[5],74.6 IU/L
same,BUN,[5],16.4 mg/dL
same,CRE,[5],0.1 mg/dL
same,Ca,[5],10.7 mg/dL
same,Cl,[5],106 meq/L
same,DBIL,[5],0.002 mg/dL
same,GLC,[5],187.2 mg/dL
same,IP,[5],6.9 mg/dL
same,K,[5],4.4 meq/L
same,LDH,[5],267.2 IU/L
same,Na,[5],142.8 meq/L
same,PL,[5],154 mg/dL
same,RALB,[5],3.2 g/dL
same,TBIL,[5],0.014 mg/dL
same,TC,[5],83.8 mg/dL
same,TG,[5],104 mg/dL
same,TP,[5],5.7 g/dL
same,gamma-GTP,[5],1.2 IU/L
same,TERMINAL_BW,[6],266.3 g
same,TERMINAL_BW,[7],294.8 g
same,TERMINAL_BW,[8],359.6 g
same,APTT,[6],22.4 s
same,Bas,[6],0%
same,Eos,[6],0.8%
same,Fbg,[6],328.2 mg/dL
same,Hb,[6],13.9 g/dL
same,Ht,[6],39.9%
same,Lym,[6],80.4%
same,MCH,[6],21.1 pg
same,MCHC,[6],34.8%
same,MCV,[6],60.5 fL
same,Mono,[6],2.4%
same,Neu,[6],15.2%
same,PT,[6],16.2 s
same,Plat,[6],119.7 x10_4/uL
same,RBC,[6],659.4 x10_4/ul
same,Ret,[6],5.7%
same,WBC,[6],105.4 x10_2/uL
same,APTT,[7],20.2 s
same,Bas,[7],0%
same,Eos,[7],0.4%
same,Fbg,[7],413 mg/dL
same,Hb,[7],14.3 g/dL
same,Ht,[7],40.6%
same,Lym,[7],81.6%
same,MCH,[7],20.1 pg
same,MCHC,[7],35%
same,MCV,[7],57.4 fL
same,Mono,[7],3.8%
same,Neu,[7],12.8%
same,PT,[7],16 s
same,Plat,[7],120.5 x10_4/uL
same,RBC,[7],708 x10_4/ul
same,Ret,[7],3.3%
same,WBC,[7],187.2 x10_2/uL
same,APTT,[8],23 s
same,Bas,[8],0%
same,Eos,[8],0.8%
same,Fbg,[8],332.8 mg/dL
same,Hb,[8],14.1 g/dL
same,Ht,[8],40.2%
same,Lym,[8],84.2%
same,MCH,[8],19 pg
same,MCHC,[8],35.1%
same,MCV,[8],54 fL
same,Mono,[8],1.8%
same,Neu,[8],12.4%
same,PT,[8],15.4 s
same,Plat,[8],102.5 x10_4/uL
same,RBC,[8],745.6 x10_4/ul
same,Ret,[8],4.2%
same,WBC,[8],146.6 x10_2/uL
same,KIDNEY_L,[6],1.1 g
same,KIDNEY_R,[6],1.2 g
same,KIDNEY_TOTAL,[6],2.3 g
same,KIDNEY_L,[7],1.2 g
same,KIDNEY_R,[7],1.2 g
same,KIDNEY_TOTAL,[7],2.4 g
same,KIDNEY_L,[8],1.3 g
same,KIDNEY_R,[8],1.3 g
same,KIDNEY_TOTAL,[8],2.6 g
same,LIVER,[6],12.4 g
same,LIVER,[7],13.6 g
same,LIVER,[8],17.2 g
same,A/G,[6],1.1
same,ALP,[6],1693.8 IU/L
same,ALT,[6],43.2 IU/L
same,AST,[6],75 IU/L
same,BUN,[6],17 mg/dL
same,CRE,[6],0.2 mg/dL
same,Ca,[6],10.7 mg/dL
same,Cl,[6],105.6 meq/L
same,DBIL,[6],0 mg/dL
same,GLC,[6],187 mg/dL
same,IP,[6],7 mg/dL
same,K,[6],4.2 meq/L
same,LDH,[6],248 IU/L
same,Na,[6],142.6 meq/L
same,PL,[6],151.6 mg/dL
same,RALB,[6],3.1 g/dL
same,TBIL,[6],0.008 mg/dL
same,TC,[6],80.8 mg/dL
same,TG,[6],121.8 mg/dL
same,TP,[6],5.8 g/dL
same,gamma-GTP,[6],1.2 IU/L
same,A/G,[7],1
